Measurements reported in PMC6988797, “Antiarrhythmic Properties of Ranolazine: Inhibition of Atrial Fibrillation Associated TASK-1 Potassium Channels” (Frontiers in Pharmacology, 2019).
pIC50: −log10 of the molar value.

What was measured:
Format in all cases: cell-based
TALK-2 = target: T1, TALK-2 (Homo sapiens, UniProt Q96T54); assay: two-electrode voltage clamp in Xenopus laevis oocytes, […] ranolazine
T1 construct: gene KCNK17
T1 sequence (Q96T54 1-332): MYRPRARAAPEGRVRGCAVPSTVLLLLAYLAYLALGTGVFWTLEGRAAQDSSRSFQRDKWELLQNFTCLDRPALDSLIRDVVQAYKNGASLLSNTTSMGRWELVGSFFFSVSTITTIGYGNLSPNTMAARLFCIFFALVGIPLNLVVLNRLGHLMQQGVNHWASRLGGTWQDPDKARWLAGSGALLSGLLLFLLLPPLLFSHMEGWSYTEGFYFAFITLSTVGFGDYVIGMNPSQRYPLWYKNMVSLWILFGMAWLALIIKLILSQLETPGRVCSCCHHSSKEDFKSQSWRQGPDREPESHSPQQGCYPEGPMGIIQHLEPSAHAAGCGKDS

TASK-2 = target: T2, TASK-2 (Homo sapiens, UniProt O95279); assay: as above
T2 construct: gene KCNK5
T2 sequence (O95279 1-499): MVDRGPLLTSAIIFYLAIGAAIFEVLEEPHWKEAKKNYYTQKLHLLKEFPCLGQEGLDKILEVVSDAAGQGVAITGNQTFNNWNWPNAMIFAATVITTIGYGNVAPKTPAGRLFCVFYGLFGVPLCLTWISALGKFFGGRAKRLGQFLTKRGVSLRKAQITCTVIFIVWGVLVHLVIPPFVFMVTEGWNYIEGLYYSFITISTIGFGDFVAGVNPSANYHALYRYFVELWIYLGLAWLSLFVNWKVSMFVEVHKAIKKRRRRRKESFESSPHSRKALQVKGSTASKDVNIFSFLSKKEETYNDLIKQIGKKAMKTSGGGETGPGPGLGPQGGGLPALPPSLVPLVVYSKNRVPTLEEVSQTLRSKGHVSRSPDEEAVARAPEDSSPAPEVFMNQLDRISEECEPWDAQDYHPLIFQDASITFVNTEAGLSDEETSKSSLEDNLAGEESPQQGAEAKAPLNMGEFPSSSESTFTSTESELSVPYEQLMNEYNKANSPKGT

TALK-1 = target: T3, TALK-1 (Homo sapiens, UniProt Q96T55); assay: as above
T3 construct: gene KCNK16
T3 sequence (Q96T55 1-309): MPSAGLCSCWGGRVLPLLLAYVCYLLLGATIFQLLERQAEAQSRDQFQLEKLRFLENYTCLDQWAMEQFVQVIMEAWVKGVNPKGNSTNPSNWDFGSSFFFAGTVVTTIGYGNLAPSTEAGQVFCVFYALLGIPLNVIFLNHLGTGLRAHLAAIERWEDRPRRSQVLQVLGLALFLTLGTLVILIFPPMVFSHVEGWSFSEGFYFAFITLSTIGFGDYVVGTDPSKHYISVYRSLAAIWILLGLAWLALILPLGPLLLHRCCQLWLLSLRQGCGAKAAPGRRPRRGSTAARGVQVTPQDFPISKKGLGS

TASK-1 = target: T4, TASK-1 (Homo sapiens, UniProt O14649); assay: whole-cell patch clamp in CHO cells; two-electrode voltage clamp in Xenopus laevis oocytes; pore mutagenesis
T4 construct: gene KCNK3

TASK-3 = target: T5, TASK-3 (Homo sapiens, UniProt Q9NPC2); assay: two-electrode voltage clamp in Xenopus laevis oocytes, […] ranolazine
T5 construct: gene KCNK9
T5 sequence (Q9NPC2 whole entry): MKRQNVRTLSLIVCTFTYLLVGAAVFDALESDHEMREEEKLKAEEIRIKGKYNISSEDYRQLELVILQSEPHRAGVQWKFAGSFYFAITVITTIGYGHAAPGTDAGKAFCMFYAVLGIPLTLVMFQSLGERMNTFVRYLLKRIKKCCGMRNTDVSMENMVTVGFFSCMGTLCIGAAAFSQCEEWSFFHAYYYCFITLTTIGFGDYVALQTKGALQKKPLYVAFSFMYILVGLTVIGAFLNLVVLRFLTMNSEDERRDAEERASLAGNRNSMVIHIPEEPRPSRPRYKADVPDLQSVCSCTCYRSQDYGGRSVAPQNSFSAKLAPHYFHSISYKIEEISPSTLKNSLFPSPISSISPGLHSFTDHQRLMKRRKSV

T4 sequence (O14649 whole entry): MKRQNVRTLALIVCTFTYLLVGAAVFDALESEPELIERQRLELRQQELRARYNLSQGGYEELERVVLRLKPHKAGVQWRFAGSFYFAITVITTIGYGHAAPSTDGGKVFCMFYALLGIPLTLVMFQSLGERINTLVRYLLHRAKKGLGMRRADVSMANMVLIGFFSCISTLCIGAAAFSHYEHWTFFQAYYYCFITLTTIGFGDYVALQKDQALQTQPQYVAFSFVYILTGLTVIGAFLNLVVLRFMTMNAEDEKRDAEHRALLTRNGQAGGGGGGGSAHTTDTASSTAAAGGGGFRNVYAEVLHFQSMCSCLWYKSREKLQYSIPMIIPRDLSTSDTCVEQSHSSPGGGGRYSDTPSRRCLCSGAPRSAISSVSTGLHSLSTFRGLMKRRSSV

SMILES: COc1ccccc1OCC(O)CN1CCN(CC(=O)Nc2c(C)cccc2C)CC1 (centres unmarked) [ranolazine]
- inhibition at 300 µM (TALK-2): 34.9%
- inhibition at 300 µM (TASK-2): 30%
- inhibition at 300 µM (TALK-1): 23%
- pIC50 (TASK-1): 4.51
- inhibition at 300 µM (TASK-3): 28.3%
